Tested on: participants with SSc-RP
Test: Frequency of weekly RP attacks (all attacks; primary endpoint), patient diary
Type: in vivo, human
Conditions: ITT Part A
Description: Percent change from baseline evaluation for frequency of weekly RP attacks were or will be used as the primary efficacy variable. The sponsor-developed participant-informed diary will be used to record data. Frequency of weekly RP attacks is defined as the total number of RP attacks divided by the number of days with available diary data within the last 7 days of each dosing period then multiplied by 7. Total number of RP attacks during the last 7 days of screening period divided by the number of days with available data then multiplied by 7 will be used as baseline for the analysis of all periods. The variable will be calculated as follows: […]
Percent change from baseline evaluation for frequency of weekly RP attacks was and will be the primary efficacy endpoint. Frequency of weekly RP attacks is defined as the total number of RP attacks divided by the number of days with available diary data within the last 7 days of each dosing period then multiplied by 7. Total number of RP attacks during the last 7 days of screening period divided by the number of days with available data then multiplied by 7 will be used as baseline for the analysis of all periods.

[1] = Tadalafil 5 mg, Baseline RCS stratum 2 (lower half of table)
[2] = tadalafil 5 mg daily, n=1, excluding outliers, last 7 days of dosing
[3] = tadalafil 5 mg daily, n=2, last 7 days of dosing

`CN1CC(=O)N2[C@H](c3ccc4c(c3)OCO4)c3[nH]c4ccccc4c3C[C@@H]2C1=O` [Tadalafil] was tested, and the “Weekly RP Attacks (All Attacks) Change from Baseline, Mean” value [1] was 3.00, the “Weekly RP Attacks (All Attacks) Change from Baseline, Median” value [1] was 3.00 and the “Weekly RP Attacks (All Attacks), Mean” value [1] was 13.00. The “Weekly RP Attacks (All Attacks), Median” value [1] was 13.00, the “Weekly RP Attacks (All Attacks) Change from Baseline, Mean” value [2] was 6.00 and the “Weekly RP Attacks (All Attacks) Change from Baseline, Median” value [2] was 6.00. The “Weekly RP Attacks (All Attacks), Mean” value [2] was 19.00, the “Weekly RP Attacks (All Attacks), Median” value [2] was 19.00 and the “Weekly RP Attacks (All Attacks) Change from Baseline, Mean” value [3] was 3.00. The “Weekly RP Attacks (All Attacks) Change from Baseline, Median” value [3] was 3.00, the “Weekly RP Attacks (All Attacks), Mean” value [3] was 13.00 and the “Weekly RP Attacks (All Attacks), Median” value [3] was 13.00.
